The test system of experiment [1] is KBM5-T315I (human chronic myelogenous leukemia). The experiment can be described thus: MTT cancer cell growth inhibition. The experiment is classed as cell-based. The following applies: 72 h, KBM5-T315I cells, 72 hours incubation, read-out: GI50 KBM5-T. An excerpt:
(§1) MTT assay principle is yellow MTT can penetrate membrane into the cell, succinic dehydrogenase of the mitochondria in living cells can make exogenous MTT reduction of insoluble in water of blue-violet acicular formazan for crystallization and deposition in the cell, crystallization can be dissolved dimethyl sulfoxide (DMSO) solution, detected its absorbance at 490 nm/570 nm wavelength by enzyme-linked immunosorbent assay, which can reflect the number of cells.
(§2) Using DMEM+10% FBS culture medium or using 1640+10% FBS culture, respectively.
(§3) Experimental group: 190 μl cell suspension+10 μl different concentrations of drugs (the final concentration is 10^−5˜10^−10 M)
(§4) a) Cells were seeded in 96-well plates with the inoculation of 1500/well, 190 μl/hole, 37° C., 5% of CO2 incubator overnight;
(§5) b) The next day each well was added 10 μl of different drugs. The final concentration of drug was 10^−5˜10^−10 M, three parallel holes; 37° C., 5% CO2 culture incubator for 72 hours incubation;
(§6) c) Per well was added 20 μl 5 mg/ml of MTT, 37° C., 5% CO2 culture incubator for 4 hours incubation;
(§7) d) The supernatant was discarded. Each well was added 100 μl of DMSO and oscillation;
(§8) e) 570 nm readings. Calculate cell viability. GI50 calculation based on the results.

Experiment [2] relates to MDA-MB-231 (breast cancer cells). The experiment can be described thus: MTT cancer cell growth inhibition. The experiment is classed as cell-based. The following applies: Homo sapiens, MDA-MB-231, 72 h, MDA-MB-231 cells, 72 hours incubation.
Excerpt: as §1, §2, §3, §4, §5, §6, §7, §8

Experiment [3] deals with N-87 (human gastric cancer cells). The experiment can be described thus: MTT cancer cell growth inhibition. The experiment is classed as cell-based. The following applies: 72 h, N-87 cells, 72 hours incubation.
Excerpt: as §1, §2, §3, §4, §5, §6, §7, §8

The subject of experiment [4] is Huh-7 (human hepatoma cells). The experiment can be described thus: MTT cancer cell growth inhibition. The following applies: Huh-7, 72 h, Huh-7 cells, 72 hours incubation. The experiment is classed as cell-based.
Excerpt: as §1, §2, §3, §4, §5, §6, §7, §8

Experiment [5] has as its system K562 (human leukemia cells). Kind of experiment: MTT cancer cell growth inhibition. The experiment is classed as cell-based. The following applies: K562, 72 h, 72 hours incubation.
Excerpt: as §1, §2, §3, §4, §5, §6, §7, §8

The test system of experiment [6] is SGC-7901 (human gastric cancer cells). The experiment can be described thus: MTT cancer cell growth inhibition. The experiment is classed as cell-based. The following applies: SGC-7901, 72 h, SGC-7901 cells, 72 hours incubation, read-out: GI50 SGC-79.
Excerpt: as §1, §2, §3, §4, §5, §6, §7, §8

Experiment [7] has as its system KBM-5 (human chronic myelogenous leukemia). The experiment can be described thus: MTT cancer cell growth inhibition. The experiment is classed as cell-based. The conditions noted are these: KBM5, 72 h, KBM-5 cells, 72 hours incubation.
Excerpt: as §1, §2, §3, §4, §5, §6, §7, §8

Experiment [8] has as its system HCC827 (human non-small cell lung cancer cells). Kind of experiment: MTT cancer cell growth inhibition. Type of experiment: cell-based. The following applies: HCC827, 72 h, 72 hours incubation, read-out: GI50 HCC8.
Excerpt: as §1, §2, §3, §4, §5, §6, §7, §8

The subject of experiment [9] is Bel-7402 (human hepatoma cells). Kind of experiment: MTT cancer cell growth inhibition. The following applies: Bel-7402, 72 h, Bel-7402 cells, 72 hours incubation, read-out: GI50 Bel-7. Type of experiment: cell-based.
Excerpt: as §1, §2, §3, §4, §5, §6, §7, §8

The next experiment addresses HDAC1 (Homo sapiens, UniProt Q13547). The experiment can be described thus: HDAC biochemical activity measurement (fluorescent substrate deacetylation). The following applies: HDAC1 enzyme, 37°, 30 minutes.
Another experiment concerns the target HDAC3 (Homo sapiens, UniProt O15379). Described as above. The conditions noted are these: IC50 (μM) HDAC3, HDAC3 enzyme, 37°, 30 minutes.
The target in the next experiment is T1, HDAC11 (Homo sapiens, UniProt Q96DB2).
T1 sequence (Q96DB2 1-347): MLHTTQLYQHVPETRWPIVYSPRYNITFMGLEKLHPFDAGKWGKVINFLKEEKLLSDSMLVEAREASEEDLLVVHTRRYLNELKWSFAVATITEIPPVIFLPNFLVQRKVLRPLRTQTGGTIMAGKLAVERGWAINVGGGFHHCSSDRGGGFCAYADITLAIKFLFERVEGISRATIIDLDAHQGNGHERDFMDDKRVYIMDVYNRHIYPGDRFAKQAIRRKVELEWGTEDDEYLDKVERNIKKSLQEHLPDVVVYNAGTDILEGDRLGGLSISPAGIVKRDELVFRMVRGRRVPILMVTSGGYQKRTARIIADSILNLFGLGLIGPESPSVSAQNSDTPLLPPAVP
The description is as above. The conditions noted are these: IC50 (μM) HDAC11, HDAC11 enzyme, 37°, 30 minutes.

A further experiment addresses HDAC2 (Homo sapiens, UniProt Q92769). The description is as above. The following applies: HDAC2 enzyme, 37°, 30 minutes.
For a further experiment, the target named is T2, HDAC8 (Homo sapiens, UniProt Q9BY41).
T2 sequence (Q9BY41 1-377): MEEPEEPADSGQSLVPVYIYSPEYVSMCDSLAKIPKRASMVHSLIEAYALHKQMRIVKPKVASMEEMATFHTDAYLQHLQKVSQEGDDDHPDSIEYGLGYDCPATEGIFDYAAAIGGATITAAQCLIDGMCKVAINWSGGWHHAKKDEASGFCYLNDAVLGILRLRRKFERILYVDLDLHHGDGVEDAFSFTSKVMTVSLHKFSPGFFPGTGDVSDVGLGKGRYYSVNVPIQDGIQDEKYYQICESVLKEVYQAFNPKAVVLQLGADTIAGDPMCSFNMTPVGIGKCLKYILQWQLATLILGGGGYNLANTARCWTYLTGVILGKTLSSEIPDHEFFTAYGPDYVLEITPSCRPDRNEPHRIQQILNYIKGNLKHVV
Described as above. The following applies: HDAC8 enzyme, 37°, 30 minutes.

For experiment [10], the system named is PANC-1 (Pac-1, human pancreatic cancer cells). The experiment can be described thus: MTT cancer cell growth inhibition. Type of experiment: cell-based. The conditions noted are these: Homo sapiens, PANC-1, 72 h, 72 hours incubation, PANC-1 cells, read-out: GI50 PAN.
Excerpt: as §1, §2, §3, §4, §5, §6, §7, §8

The subject of experiment [11] is DU145 (human prostate cancer cells). The experiment can be described thus: MTT cancer cell growth inhibition. The experiment is classed as cell-based. The conditions noted are these: Homo sapiens, DU-145, 72 h, 72 hours incubation, DU145 cells, read-out: GI50 Du14.
Excerpt: as §1, §2, §3, §4, §5, §6, §7, §8

Experiment [12] relates to BGC-823 (human gastric cancer cells). Kind of experiment: MTT cancer cell growth inhibition. The conditions noted are these: Homo sapiens, BGC-823, 72 h, 72 hours incubation, BGC-823 cells, read-out: GI50 BGC8. Type of experiment: cell-based.
Excerpt: as §1, §2, §3, §4, §5, §6, §7, §8

The subject of experiment [13] is U937 (human leukemia cells). Kind of experiment: MTT cancer cell growth inhibition. Type of experiment: cell-based. The conditions noted are these: Homo sapiens, U-937, 72 h, 72 hours incubation.
Excerpt: as §1, §2, §3, §4, §5, §6, §7, §8

The test system of experiment [14] is HT1080 (human fibrosarcoma cells). The experiment can be described thus: MTT cancer cell growth inhibition. Type of experiment: cell-based. The conditions noted are these: Homo sapiens, HT-1080, 72 h, 72 hours incubation, HT1080 cells, read-out: GI50 HT10.
Excerpt: as §1, §2, §3, §4, §5, §6, §7, §8

The subject of experiment [15] is A549 (human lung cancer cells). The experiment can be described thus: MTT cancer cell growth inhibition. The experiment is classed as cell-based. The conditions noted are these: Homo sapiens, A549, 72 h, 72 hours incubation, A549 cells, read-out: GI50 A549.
Excerpt: as §1, §2, §3, §4, §5, §6, §7, §8

Experiment [16] has as its system MCF-7 (human breast cancer cells). The experiment can be described thus: MTT cancer cell growth inhibition. The following applies: Homo sapiens, MCF7, 72 h, 72 hours incubation, MCF-7 cells. The experiment is classed as cell-based.
Excerpt: as §1, §2, §3, §4, §5, §6, §7, §8

The subject of experiment [17] is Hela (human cervical cancer cells). The experiment can be described thus: MTT cancer cell growth inhibition. Type of experiment: cell-based. The conditions noted are these: Homo sapiens, HeLa, 72 h, 72 hours incubation, Hela cells, read-out: GI50 Hela.
Excerpt: as §1, §2, §3, §4, §5, §6, §7, §8

Experiment [18] deals with MOLT-4 (human acute lymphoblastic leukemia cells). The experiment can be described thus: MTT cancer cell growth inhibition. The experiment is classed as cell-based. The following applies: Homo sapiens, MOLT-4, 72 h, 72 hours incubation, MOLT-4 cells, read-out: GI50 Molt-.
Excerpt: as §1, §2, §3, §4, §5, §6, §7, §8

Experiment [19] deals with lncap (prostate cancer cells). The experiment can be described thus: MTT cancer cell growth inhibition. The conditions noted are these: Homo sapiens, LNCaP, 72 h, 72 hours incubation, lncap cells, read-out: GI50 lncap. Type of experiment: cell-based.
Excerpt: as §1, §2, §3, §4, §5, §6, §7, §8

Sequence of HDAC1 (Q13547 whole entry, species assumed): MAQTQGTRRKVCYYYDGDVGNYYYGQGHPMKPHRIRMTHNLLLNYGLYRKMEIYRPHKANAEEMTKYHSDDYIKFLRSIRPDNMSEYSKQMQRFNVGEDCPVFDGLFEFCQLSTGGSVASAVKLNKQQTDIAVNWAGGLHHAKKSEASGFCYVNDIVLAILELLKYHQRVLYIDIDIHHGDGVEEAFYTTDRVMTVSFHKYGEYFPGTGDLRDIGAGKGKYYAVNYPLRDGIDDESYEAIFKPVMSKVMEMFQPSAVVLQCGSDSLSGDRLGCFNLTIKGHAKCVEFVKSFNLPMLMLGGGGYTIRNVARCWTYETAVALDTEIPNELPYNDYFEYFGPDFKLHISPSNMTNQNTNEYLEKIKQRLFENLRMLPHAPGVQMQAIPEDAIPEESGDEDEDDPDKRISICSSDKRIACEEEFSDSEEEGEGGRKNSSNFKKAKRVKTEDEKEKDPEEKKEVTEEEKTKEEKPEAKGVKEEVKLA
Sequence of HDAC2 (Q92769 whole entry, species assumed): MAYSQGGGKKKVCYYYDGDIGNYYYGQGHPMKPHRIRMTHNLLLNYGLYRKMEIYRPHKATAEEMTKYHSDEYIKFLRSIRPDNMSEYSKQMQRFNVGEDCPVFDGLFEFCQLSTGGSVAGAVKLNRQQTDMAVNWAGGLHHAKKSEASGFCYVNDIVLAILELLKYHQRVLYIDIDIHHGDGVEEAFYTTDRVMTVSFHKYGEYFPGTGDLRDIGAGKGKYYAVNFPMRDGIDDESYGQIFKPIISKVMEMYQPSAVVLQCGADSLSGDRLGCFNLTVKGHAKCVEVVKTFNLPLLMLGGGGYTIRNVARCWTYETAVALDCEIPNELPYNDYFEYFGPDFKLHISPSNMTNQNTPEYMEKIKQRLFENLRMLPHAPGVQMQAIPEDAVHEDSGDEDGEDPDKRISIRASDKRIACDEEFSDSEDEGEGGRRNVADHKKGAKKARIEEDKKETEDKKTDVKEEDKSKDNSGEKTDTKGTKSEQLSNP
Sequence of HDAC3 (O15379 whole entry, species assumed): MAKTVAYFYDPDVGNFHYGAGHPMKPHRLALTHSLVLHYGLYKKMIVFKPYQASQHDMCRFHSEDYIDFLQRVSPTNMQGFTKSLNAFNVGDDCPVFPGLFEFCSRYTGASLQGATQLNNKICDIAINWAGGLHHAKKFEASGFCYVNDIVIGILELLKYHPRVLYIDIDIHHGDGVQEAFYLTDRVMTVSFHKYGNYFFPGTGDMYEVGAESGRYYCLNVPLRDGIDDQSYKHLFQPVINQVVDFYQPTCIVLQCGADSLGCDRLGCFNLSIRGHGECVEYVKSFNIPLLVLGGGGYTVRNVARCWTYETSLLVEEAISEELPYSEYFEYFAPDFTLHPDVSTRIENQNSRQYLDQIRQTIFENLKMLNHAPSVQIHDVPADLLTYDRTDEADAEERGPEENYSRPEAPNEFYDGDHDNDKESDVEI
Sequence of HDAC3 (Q9Y618 395-489 partner limits assumed, species assumed): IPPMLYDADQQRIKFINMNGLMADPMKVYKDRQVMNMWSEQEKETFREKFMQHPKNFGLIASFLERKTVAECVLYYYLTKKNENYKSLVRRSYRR
Description for HDAC11: (§9) Measurement principle: The chemical activity of the compound is determined according to the degree of deacetylation inhibition of the HDAC enzyme. This experiment measured the degree of deacetylation related to tumor proliferation and metastasis of HDAC1, HDAC2, HDAC3, HDAC8, HDAC11 five subtypes HDAC enzymes. After the substrate containing an acetylated lysine side chain and HDAC enzyme are labeled with a fluorescent label, the fluorescent substrate is de acetyl. The fluorescent labeled substrate is cleaved by the enzyme, and the fluorescent substance is released, which generates 460 nm emission light under the excitation of 360 nm light.
(§10) Specific steps: HDAC substrate was diluted with reaction buffer to 200M (reaction concentration of 20M), the HDAC enzyme was diluted to the appropriate concentration, then added different concentrations of the test compounds and acted at 37 ? 30 minutes, and then added the same volume of 2-times concentration substrate developing solution (developer), incubated at room temperature for 15 minutes. Finally, the last reading measured with a microplate plate reader, excitation light was 360 nm, the emitted light was 460 nm, data processing software was Prime 4, and the results are shown in Table 1.
Description for HDAC2: as §9, §10
Description for HDAC3: as §9, §10
Description for HDAC8: as §9, §10

Take `C/C=C1\NC(=O)c2ccc(F)c(n2)CNC(=O)C[C@@H](/C=C/CCSC(C)=O)OC(=O)[C@H](C(C)C)NC1=O` (single isomer, unassigned) [Example 50]: the 50% growth inhibitory concentration (GI50) in experiment [1] is 0.063 µM; in [2], 0.025 µM; in experiment [3], 0.069 µM; in experiment [4], 0.025 µM; in [5] it was 0.042 µM; in [6], 0.039 µM. The same compound had a GI50 in experiment [7] of 0.079 µM.

Regarding `C/C=C1\NC(=O)c2cc(F)cc(n2)CNC(=O)C[C@@H](/C=C/CCSC(C)=O)OC(=O)[C@H](C(C)C)NC1=O` [Compound 49], the GI50 in experiment [1] is 0.055 µM; in experiment [2], 0.026 µM; in [3], 0.073 µM; in [8], 0.072 µM; in experiment [4], 0.026 µM; in experiment [9], 0.072 µM. The 50% growth inhibitory concentration (GI50) in [5] stood at 0.017 µM; in [6], 0.067 µM; in experiment [7], 0.087 µM.

For the compound `C/C=C1\NC(=O)c2ccc(SC)c(n2)CNC(=O)C[C@@H](/C=C/CCSC(=O)CCC)OC(=O)[C@H](C(C)C)NC1=O` [Compound 161], the IC50 on HDAC1 was 0.061 µM; at HDAC3 it was 0.063 µM; against HDAC11 it was 0.086 µM; on HDAC2, 0.033 µM; at HDAC8, 0.062 µM. Moreover, the 50% growth inhibitory concentration (GI50) in experiment [10] worked out at 0.011 µM; in experiment [11] it was 0.023 µM; in [12] it was 0.029 µM; in experiment [13], 0.065 µM; in experiment [14] it was 0.057 µM; in experiment [15], 0.083 µM. Moreover, the concentration for 50% growth inhibition (GI50) in experiment [16] worked out at 0.073 µM; in [17] it was 0.012 µM; in [18] it was 0.032 µM; in experiment [19], 0.079 µM.

`C/C=C1\NC(=O)c2cc(SC)cc(n2)CNC(=O)C[C@@H](/C=C/CCSC(=O)CCCC)OC(=O)[C@H](C(C)C)NC1=O` [Compound 157]: the IC50 against HDAC1 was found to be 0.082 µM; against HDAC3, 0.051 µM; at HDAC11, 0.091 µM; on HDAC2, 0.019 µM; on HDAC8, 0.027 µM. Moreover, the GI50 in [10] is 0.026 µM; in [11] it was 0.073 µM; in [12] it was 0.037 µM; in experiment [13], 0.024 µM; in experiment [14], 0.095 µM; in [15], 0.025 µM. Also, the 50% growth inhibitory concentration (GI50) in [16] was found to be 0.023 µM; in experiment [17] it was 0.076 µM; in experiment [18], 0.025 µM; in experiment [19] it was 0.051 µM.

Broadly, the GI50 is the concentration at which growth is held to half of that of the control. By IC50 is commonly meant the concentration that gives 50% inhibition.

These data come from patent US20160280736A1, “CYCLIC PEPTIDE COMPOUND, AND PREPARATION METHOD, PHARMACEUTICAL COMPOSITION AND USE THEREOF” (HANGZHOU GUANYU BIO-MEDICAL CO., LTD., priority 2013, published 2016).
